# Tests used:
# [1] = tested on: DNFB contact hypersensitivity; test: Dinitrofluorobenzene (DNFB) contact hypersensitivity test, ear thickening after topical application; assay type: in vivo, C57 BL/6JICO mice; conditions: Example 13
# Excerpt: Study of the Anti-allergic activity of the Peptide compounds, by the Dinitrofluorobenzene (DNFB) contact Hypersensitivity test.
# Female C57 BL/6JICO mice 5 weeks old are separated into ten batches of ten animals (five per cage), with free access to water and food, subjected to a photoperiod of twelve hours of light per twenty-four hours.
# The animals in batches 1 to 6 receive daily and per topical application on the shaved skin of the back, the products to be studied, dissolved in propylene glycol, in a constant volume of 50 μl and for five consecutive days.
# PIII--Batches 1 - 2 - 3--2.5 μg --0.5 μg--0.1 μg--mouse/day
# PIV--Batches 4 - 5 - 6 - 2.5μg--0.5 μg--0.1 μg--mouse/day
# The animals of the X batch serve as controls (and receive only, 50 μl of propylene glycol per topical application for five days).
# (§1) On the fifth day, thirty minutes after the last application, all the mice are sensitized with 25 μl of DNFB (2.4-Dinitro-1-FluoroBenzene (FLUKA CHEMIKA PURUM at 97% batch No. 33820890) at 2% in a 4 to 1 mixture of acetone (SDS ref. 0510) and triolein (FLUKA) applied topically over the dorsal region of shaved skin.
# On the sixth day, a new sensitization is carried out by application of DNFB.
# On the eleventh day, the thickness of the ears of the mice is measured with the aid of a micrometer (ROCH 0 to 25 mm in 1/100 mm) in order to obtain base values, then the ears are stimulated by topical application of 20 μl of DNFB at 0.8%.
# (§2) On the twelfth day, the thickness of the ears is again measured. The mean value of thickening of the ears is established for the mice in the batches which had received the products to be studied, as well as for the mice in the control batch.
# The percentage of suppression where appropriate will be expressed by the following calculation: [formula]
# Comparative study of the activity of Lipoyl-Peptides and of their peptide structures on DNFB contact hypersensitivity.
# The method used is that described above in Example 10.
# Contact hypersensitivity induced in mice by Dinitrofluorobenzene--"DNBF"
# Batch I: (DL) - Lip - Glu - His - D.homoPhe - Arg - Trp - Gly - NH2
# Batch II: H - Glu - His - D.homoPhe - Arg - Trp - Gly - NH2
# Batch III: Control=(DL) - Lipoic Acid
# Solvent: propylene Glycol previously used as control in Example 10.
# Control: dose used"DL-Lipoic-Acid"=10 ng per mouse and per day.
# as §1, with “were” for “are”, “05510)” for “0510)”
# as §2, with “batch. The percentage of suppression where appropriate will be expressed by the following calculation: [formula]” for “batch.”
# cultured embryonic cells = test: Effects of Peptides PI and PIV on cultured embryonic cells in vitro (melanocytes, neurons, muscular cells, fibroblasts); assay type: cell-based
# Procedure: Effects of Peptides PI and PIV on cultured embryonic cells in vitro . . . "Melanocytes - Neurons - Muscular Cells and Fibroblasts . . . " dose used 1 μg/ml (defined by dose/response trials)
# 1 single treatment during the innoculation of the cells or several successive treatments (renewal of the medium every 48 hours) duration of culture: 6 to 8 days
# 1) Counting of the melanocytes
# 2) Assay of melanin by HPLC and/or by spectrophotometry
# Daily observation of the cultures
# Ultrastructure by transmission electron microscopy.
compound,measurement,setting,value
"O=C(O)CCCCC1CCSS1 (stereo not drawn) [Lipoic acid, (DL) - Lipoic Acid, reference compound]",suppressive effect of cutaneous hypersensitivity (in words),"[1]; 10 ng per mouse and per day, in solution in Propylene Glycol",No suppressive effect
[(DL) Lip] Glu - His - D.homoPhe - Arg - Trp - Gly - NH2 [PI],"% SUPPRESSION RELATIVE TO THE CONTROL BATCH, Left Ear",[1]; 1 ng/mouse/day,-75.40%
same,"% SUPPRESSION RELATIVE TO THE CONTROL BATCH, Right Ear",[1]; 1 ng/mouse/day,-75.58%
same,LEFT EAR MEAN % INCREASE,[1]; 1 ng/mouse/day,13.86%
same,RIGHT EAR MEAN % INCREASE,[1]; 1 ng/mouse/day,13.86%
same,"% SUPPRESSION RELATIVE TO THE CONTROL BATCH, Left Ear",[1]; 10 ng/mouse/day,-77.01%
same,"% SUPPRESSION RELATIVE TO THE CONTROL BATCH, Right Ear",[1]; 10 ng/mouse/day,-76.90%
same,LEFT EAR MEAN % INCREASE,[1]; 10 ng/mouse/day,12.95%
same,RIGHT EAR MEAN % INCREASE,[1]; 10 ng/mouse/day,13.01%
same,"% SUPPRESSION RELATIVE TO THE CONTROL BATCH, Left Ear",[1]; 100 ng/mouse/day,-79.30%
same,"% SUPPRESSION RELATIVE TO THE CONTROL BATCH, Right Ear",[1]; 100 ng/mouse/day,-79.45%
same,LEFT EAR MEAN % INCREASE,[1]; 100 ng/mouse/day,11.66%
same,RIGHT EAR MEAN % INCREASE,[1]; 100 ng/mouse/day,11.66%
same,suppression of cutaneous hypersensitivity,[1]; 100 ng/mouse/day,79%
same,effect on precursor embryonic cells not yet determined in the melanoblastic pathway (in words),cultured embryonic cells; 1 μg/ml,no effect
same,effect on the melanoblasts already induced (in words),cultured embryonic cells; 1 μg/ml,stimulating effect
same,number of melanocytes increases by a factor,cultured embryonic cells; 1 μg/ml,≥ 2
same,toxic effect on astroglial cells (in words),cultured embryonic cells; 1 μg/ml,No toxic effect
same,"toxic effect on fibroblasts, mesenchyme (in words)",cultured embryonic cells; 1 μg/ml,no toxic effect
same,quantity of biosynthesized melanin per cell,"cultured embryonic cells; 1 μg/ml, after eight days of culture",1.4 ng/cell
same,toxic effect on myoblasts (in words),"cultured embryonic cells; 1 μg/ml, even at an ultrastructural level",no toxic effect
same,"effect on melanogenesis, summary (in words)",cultured embryonic cells; qualitative and quantitative,stimulate melanogenesis
same,cytotoxic effect on the various cell categories (in words),cultured embryonic cells; summary,no cytotoxic effect
same,"stimulating effect on the other cell types: neurons, astrocytes, muscle cells, fibroblasts (in words)",cultured embryonic cells; summary,without stimulating effect
